Experimental data: US20200261534A1, “NEW TREATMENTS OF MULTIPLE MYELOMA” (priority 2017, published 2020)
pIC50: −log10 of the molar value. Where two headings read alike, the source gives them in different places. Starred links: 1 amine or outer side, 2 acyl side, 3 side chain; linkers in the order of their positions; H or OH if unused. Positions of bridges follow the written chain, without caps; N, C: chain ends. Non-standard residues stand in square brackets, D forms with d. Residues, ends and D or L forms follow the SMILES beside them. ξ: configuration not given here. ξαMeNle(6-ylidene) = CC(CCCC=[*:3])(N[*:1])C(=O)[*:2]; X1 = CC(CCCCCCC=[*:3])(N[*:1])C(=O)[*:2]; Octanediyl(1,8) = C(CCCC[*:2])CCC[*:1]; ξC = NC(CS)C(=O)O

Columns and labels:
[1] = tested on: U266DOX4, lymphoblast (myeloma), selected for resistance to Doxorubicin; type: cell-based; conditions: for pIC50: U266DOX4
Description: U266DOX4, lymphoblast (myeloma), selected for resistance to Doxorubicin (Alvarez-Fernández et al. Clin Cancer Res. 2013 May 15; 19(10):2677-87).
All cell lines were cultured in incubator at 37° C. in RPMI-1640 (Sigma R8758) medium with 10% of fetal bovine serum inactivated (FBS) and 2 mM glutamine (Sigma G7513). During the amplification step cells were centrifuged and transferred into the culturing medium. Cells were counted in a Neubauer chamber after labelling with Tripan-Blue.
Cells were seeded at a density of 10000 cells/well in 100 μl of medium in 96 well plates. After 24 h, the compounds to be tested were added to calculate the dose/response curve at the starting concentration of 100 μM with serial dilutions (1:1). Controls are the untreated cells. Each experiment was performed in triplicate.
Cells were incubated with the peptidomimetic compound (S09) at the indicated concentrations during 24-72 h in incubator under CO2 atmosphere at 37° C. Then, cell viability was measured by means of MTT (3-(4,5-dimethylthiazol-2-yl)-2,5-diphenyltetrazolium bromide) assay. Stock solution of MTT (475989 Calbiochem) was 5 mg/ml in PBS. 1×.10 μl/well of MTT solution were added and the plate was incubated for 3-4 hr. The medium was discarded and 100 μl of extracting buffer (PBS 1×, 15% SDS, 50% […] N,N-Dimethylformamide, pH 4.7) were added to each well. Plates were incubated for 16 h at room temperature under orbital shaking. Absorbance at 570 nm was finally measured. As negative control (experiment noise) 3 wells were treated with 20 μl/well of a solution of SDS 10% in H2O.
Data analysis was performed calculating the percentage of cell viability normalized vs. the values of negative control, which was considered equal to 100%. The dose/response curve was fitted through the sigmoidal equation dose-response (variable slope) and the IC50 values were calculated as follow:
Y=Bottom+(Top−Bottom)/(1+10^{[(LogIC50−X)*HillSlope]},
U266DOX4, lymphoblast (myeloma), selected for resistance to Doxorubicin (Alvarez-Fernandez et al. Clin Cancer Res. 2013 May 15; 19(10):2677-87).
All cell lines were cultured in incubator at 37° C. in RPMI-1640 (Sigma R8758) medium with 10% of fetal bovine serum inactivated (FBS) and 2 mM glutamine (Sigma G7513).
Cells were seeded at a density of 10,000 cells/well in 100 μl of medium in 96 well plates. After 24 h, the compounds to be tested were added to calculate the dose/response curve at the starting concentration of 40 μM with serial dilutions (1:1). […]
Cells were incubated with the peptidomimetic compounds at the indicated concentrations during 24-72 h in incubator under CO2 atmosphere at 37° C. Then, cell viability was measured by means of MTT (3-(4,5-dimethylthiazol-2-yl)-2,5-diphenyltetrazolium bromide) assay. […] Absorbance at 570 nm was finally measured. […]

[2] = tested on: RAMOS, B lymphocyte (Burkitt's Lymphoma); experiment: MTT viability assay, RAMOS; type: cell-based
Description: RAMOS, B lymphocyte (Burkitt's Lymphoma), ATCC: CRL-1596 […] During the amplification step and the assays adherent cells were rinsed with DPBS (Dulbecco's Phosphate Buffered Saline, Sigma D1283) three times and afterward treated for 5 minutes with trypsin ([…]) (Gibco-BRL, 15400054) in solution of DPBS at 37° C., and, once detached, transferred in the culturing medium. No-adherent cells were centrifuged and transferred in the culturing medium. Cells were counted in a Neubauer chamber after labelling with Tripan-Blue. […] Cells were seeded at a density of 10000 cells/well in 100 μl of medium in 96 well plates. […] Controls are the untreated cells. Each experiment was performed in triplicate. Cells were incubated with the compounds at the indicated concentrations during 24-72 h in incubator under CO2 atmosphere at 37° C. […] Stock solution of MTT (475989 Calbiochem) was 5 mg/ml in PBS. 1×.10 μl/well of MTT solution were added and the plate was incubated for 3-4 hr. […] Plates were incubated for 16 h at room temperature under orbital shaking. Absorbance at 570 nm was finally measured. […] The dose/response curve was fitted through the sigmoidal equation dose-response (variable slope) and the IC50 values were calculated as follow: Y=Bottom+(Top−Bottom)/(1+10^{[(LogIC50−X)*HillSlope]},

[3] = 72 hr, Table 14, read-out: IC50 after 72 hr values

Compound | pIC50 [1, 3] | pIC50 ([2]; Ramos, MTT, incubation 24-72 h, Table 3, read-out: IC50 values) | pIC50 ([2]; Ramos, same protocol as Example 2, Table 6, read-out: Compound (IC50)) | IC50 ([1]; U266DOX4 (resistant to Doxorubicin), MTT, 24-72 h, Table 7, read-out: IC50 values in μM for S09) [µM] | pIC50 [2] | pIC50 ([1]; 24 hr, Table 13, read-out: IC50 after 24 hr values)
CC[C@H](C)[C@H](NC(=O)[C@H](Cc1ccc(O)cc1)NC(=O)[C@H](C)NC(=O)C1CSCCCCCCCCSCC(NC(=O)[C@H](CCCCN)NC(=O)[C@@H]2CCCN2C(=O)[C@H](C)N)C(=O)N[C@@H](C(C)C)C(=O)N[C@@H]([C@@H](C)CC)C(=O)N[C@@H](CC(C)C)C(=O)N[C@@H](CCCCN)C(=O)N[C@@H](CCCCN)C(=O)N[C@@H](C)C(=O)N1)C(=O)N[C@@H](CC(C)C)C(=O)N[C@@H](CO)C(=O)O (stereo partly shown) [IDP-P1708160] (H-APK[ξC]VILKKA[ξC]AYILS-OH; linker 4-11 via Octanediyl(1,8); N-terminus and C-terminus assumed) | 5.12 |  |  |  |  | 
CC[C@H](C)[C@H](NC(=O)[C@H](Cc1ccc(O)cc1)NC(=O)[C@H](C)NC(=O)C1(C)CCCC=CCCCCCCC(C)(NC(=O)[C@H](CCCCN)NC(=O)[C@@H]2CCCN2C(=O)[C@H](C)N)C(=O)N[C@@H](C(C)C)C(=O)N[C@@H]([C@@H](C)CC)C(=O)N[C@@H](CC(C)C)C(=O)N[C@@H](CCCCN)C(=O)N[C@@H](CCCCN)C(=O)N[C@@H](C)C(=O)N1)C(=O)N[C@@H](CC(C)C)C(=O)N[C@@H](CO)C(=O)O (stereo partly shown) [S09, APKXVILKKAXAYILS—OH] (H-APK[X1]VILKKA[ξαMeNle(6-ylidene)]AYILS-OH; staple 4-11; N-terminus assumed) |  | ~4.55 | ~4.55 | 5 |  | 
CC[C@H](C)[C@H](NC(=O)[C@H](Cc1ccc(O)cc1)NC(=O)[C@H](C)NC(=O)C1(C)CCCC=CCCCCCCC(C)(NC(=O)[C@H](CCCCN)NC(=O)[C@@H]2CCCN2C(=O)[C@H](C)N)C(=O)N[C@@H](C(C)C)C(=O)N[C@@H]([C@@H](C)CC)C(=O)N[C@@H](Cc2ccccc2)C(=O)N[C@@H](CCCCN)C(=O)N[C@@H](CCCCN)C(=O)N[C@@H](C)C(=O)N1)C(=O)N[C@@H](CC(C)C)C(=O)N[C@@H](CO)C(=O)O (stereo partly shown) [S14, APKXVIFKKAXAYILS—OH] (H-APK[X1]VIFKKA[ξαMeNle(6-ylidene)]AYILS-OH; staple 4-11; N-terminus assumed) | 4.82 |  |  |  | 4.26 | 4.82
